Laboratory results as given in patent US8697694B2, “Substituted pyridine and pyrimidine derivatives and their use in treating viral infections” (priority 2008, dated 2014).
Like-named read-outs stand apart in the source and are kept apart here.

Tested on: HCV replicon cells
Assay: Cell-based HCV replicon assay (replicon RNA level by real time PCR, Taqman)
Conditions: Hepatitis C virus, 72 h, HCV replicon cells, read-out: EC90 (μM) range
Method in brief: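 HCV replicon cells treated 3 days with 10 serial 2-fold compound dilutions (top 25 μM to 1 μM; 0.5% DMSO, 10% FBS). Replicon RNA quantified by multiplex Taqman RT-PCR (NS5B amplicon, GAPDH control); EC50 and EC90 = concentrations giving ΔCT of 1 and 3.2 over baseline.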

[1] = replicon RNA level by real time PCR, harvested day 3
[2] = replicon RNA level by real time PCR (Taqman), harvested on day 3, calculated EC90 reported as range class

SMILES	EC90 [1] [µM]	EC90 [2] [µM]	other results
CNc1nc(C)c(-c2nc3ccccc3s2)c(N[C@@H]2C[C@H](CO)[C@@H](O)[C@H]2O)n1 [Example 319]			EC90 (harvested day 3, replicon RNA by real time PCR, reported as range class): < 0.5 µM
Cc1nc(NCc2c(F)cccc2F)nc(N[C@@H]2C[C@H](CO)[C@@H](O)[C@H]2O)c1-c1nc2ccccc2s1 [Example 1910]	< 0.5		
CCCCCCNc1nc(C)c(-c2nc3ccccc3s2)c(N[C@@H]2C[C@H](CO)[C@H]3OC(C)(C)O[C@H]32)n1 [Example 1117]		> 5	
Cc1nc(NCCNC(=O)NC(C)(C)C)nc(N[C@@H]2C[C@H](CO)[C@@H](O)[C@H]2O)c1-c1nc2ccccc2s1 [Example 250]			EC90 (harvested on day 3, replicon RNA by real time PCR, calculated EC90 reported as range class): 0.5 to 5 µM
Cc1nc(NCC2CC2)nc(N[C@@H]2C[C@@H](C(C)O)[C@@H](O)[C@H]2O)c1-c1nc2cnccc2s1 (stereo partly drawn) [Example 1650]	< 0.5		
Cc1nc(Nc2cc[nH]n2)nc(N[C@@H]2C[C@H](CO)[C@@H](O)[C@H]2O)c1-c1nc2ccccc2s1 [Example 1222]		> 5	
